Results from PubChem BioAssay (NCI).
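Here, GI50 denotes the concentration required for 50% inhibition of growth. TGI denotes the concentration required for complete inhibition of growth.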

Assays:
Assay in all cases: NCI anticancer screen, dose series, 384-well format
[1] = system: BT-549 breast
[2] = system: SF-268 CNS
[3] = system: SK-MEL-5 melanoma
[4] = system: T-47D breast
[5] = system: IGROV1 ovarian
[6] = system: HT29 colon
[7] = system: RXF 393 renal
[8] = system: SF-295 CNS
[9] = system: HL-60(TB) leukemia
[10] = system: MDA-MB-468 breast
[11] = system: MDA-MB-435 melanoma
[12] = system: LOX IMVI melanoma
[13] = system: SN12C renal
[14] = system: OVCAR-4 ovarian
[15] = system: HCT-116 colon
[16] = system: UACC-62 melanoma
[17] = system: HCT-15 colon
[18] = system: NCI-H226 lung
[19] = system: NCI-H460 NSCLC
[20] = system: OVCAR-3 ovarian
[21] = system: MOLT-4 leukemia
[22] = system: EKVX NSCLC
[23] = system: NCI-H522 lung
[24] = system: SNB-75 CNS
[25] = system: HS 578T breast
[26] = system: PC-3 prostate
[27] = system: TK-10 renal
[28] = system: OVCAR-5 ovarian
[29] = system: KM12 colon
[30] = system: MALME-3M melanoma
[31] = system: MCF7 breast
[32] = system: SNB-19 CNS
[33] = system: HOP-62 NSCLC
[34] = system: ACHN renal
[35] = system: M14 melanoma
[36] = system: MDA-MB-231 breast
[37] = system: SR leukemia
[38] = system: UACC-257 melanoma
[39] = system: NCI-H23 lung
[40] = system: COLO 205 colon
[41] = system: A549 NSCLC
[42] = system: A498 renal
[43] = system: DU-145 prostate
[44] = system: SF-539 CNS
[45] = system: HCC-2998 colon
[46] = system: OVCAR-8 ovarian
[47] = system: NCI-H322M lung
[48] = system: RPMI-8226 leukemia
[49] = system: U251 glioblastoma
[50] = system: NCI/ADR-RES ovarian
[51] = system: CAKI-1 renal
[52] = system: HOP-92 NSCLC
[53] = system: SK-MEL-28 melanoma
[54] = system: SK-OV-3 ovarian

Which results are given for `COC1CCN(C(=O)c2cc(Cc3n[nH]c(=O)c4ccccc34)ccc2F)CC1`?
GI50 [1]: 84.6 µM; TGI [1]: > 100 µM; GI50 [2]: 44.5 µM; TGI [2]: > 100 µM; GI50 [3]: 74.2 µM; TGI [3]: > 100 µM; GI50 [4]: > 100 µM; TGI [4]: > 100 µM; GI50 [5]: > 100 µM; TGI [5]: > 100 µM; GI50 [6]: > 100 µM; TGI [6]: > 100 µM; GI50 [7]: > 100 µM; TGI [7]: > 100 µM; GI50 [8]: 11.4 µM; TGI [8]: > 100 µM; GI50 [9]: 10.4 µM; TGI [9]: 29.7 µM; GI50 [10]: 9.62 µM; TGI [10]: 33.3 µM; GI50 [11]: > 100 µM; TGI [11]: > 100 µM; GI50 [12]: 33.5 µM; TGI [12]: > 100 µM; GI50 [13]: 46.1 µM; TGI [13]: > 100 µM; GI50 [14]: > 100 µM; TGI [14]: > 100 µM; GI50 [15]: 28.7 µM; TGI [15]: > 100 µM; GI50 [16]: > 100 µM; TGI [16]: > 100 µM; GI50 [17]: > 100 µM; TGI [17]: > 100 µM; GI50 [18]: > 100 µM; TGI [18]: > 100 µM; GI50 [19]: 5.93 µM; TGI [19]: 56.1 µM; GI50 [20]: 7.79 µM; TGI [20]: > 100 µM; GI50 [21]: 4.06 µM; TGI [21]: 14.2 µM; GI50 [22]: > 100 µM; TGI [22]: > 100 µM; GI50 [23]: > 100 µM; TGI [23]: > 100 µM; GI50 [24]: 94.7 µM; TGI [24]: > 100 µM; GI50 [25]: > 100 µM; TGI [25]: > 100 µM; GI50 [26]: > 100 µM; TGI [26]: > 100 µM; GI50 [27]: > 100 µM; TGI [27]: > 100 µM; GI50 [28]: > 100 µM; TGI [28]: > 100 µM; GI50 [29]: > 100 µM; TGI [29]: > 100 µM; GI50 [30]: > 100 µM; TGI [30]: > 100 µM; GI50 [31]: 68.1 µM; TGI [31]: > 100 µM; GI50 [32]: 46.9 µM; TGI [32]: > 100 µM; GI50 [33]: 10.4 µM; TGI [33]: 49.8 µM; GI50 [34]: > 100 µM; TGI [34]: > 100 µM; GI50 [35]: 74.7 µM; TGI [35]: > 100 µM; GI50 [36]: 81 µM; TGI [36]: > 100 µM; GI50 [37]: 0.364 µM; TGI [37]: 2.45 µM; GI50 [38]: > 100 µM; TGI [38]: > 100 µM; GI50 [39]: 59.7 µM; TGI [39]: > 100 µM; GI50 [40]: > 100 µM; TGI [40]: > 100 µM; GI50 [41]: > 100 µM; TGI [41]: > 100 µM; GI50 [42]: > 100 µM; TGI [42]: > 100 µM; GI50 [43]: 68.2 µM; TGI [43]: > 100 µM; GI50 [44]: 27.3 µM; TGI [44]: > 100 µM; GI50 [45]: 63.7 µM; TGI [45]: > 100 µM; GI50 [46]: 22.6 µM; TGI [46]: > 100 µM; GI50 [47]: > 100 µM; TGI [47]: > 100 µM; GI50 [48]: 46.6 µM; TGI [48]: > 100 µM; GI50 [49]: 25.8 µM; TGI [49]: > 100 µM; GI50 [50]: 34.9 µM; TGI [50]: > 100 µM; GI50 [51]: > 100 µM; TGI [51]: > 100 µM; GI50 [52]: > 100 µM; TGI [52]: > 100 µM; GI50 [53]: > 100 µM; TGI [53]: > 100 µM; GI50 [54]: 32.3 µM; TGI [54]: > 100 µM
